Source: US20130157954A1, “METHODS FOR TREATMENT OR PROPHYLAXIS OF KIDNEY OR LIVER DYSFUNCTION” (NPS PHARMACEUTICALS, INC., priority 2010, published 2013)

Assay: Example 2: liver biomarkers (albumin, gamma glutamyl transferase, total bilirubin, ALT, AST, ALP) in short bowel syndrome patients, every four weeks for 24 weeks; also sorted by >10% change from baseline
Assay type: in vivo, Human
Details: 0.05 mg/kg/d
Description: To further confirm the results of Example 1, a further study was conducted involving more individuals and additional diagnostic biomarkers. Human patients with short bowel syndrome were divided into two groups: a control group (43 total individuals) to receive placebo, and an experimental group (42 total individuals) to receive teduglutide at 0.05 mg/kg/day throughout the study. Patients were treated by subcutaneous injection of placebo or the appropriate dose of teduglutide. Known biomarkers of liver function were monitored every four weeks, for 24 weeks. The liver biomarkers tested included albumin, gamma glutamyl transferase, total bilirubin, ALT and AST and ALP. Before administration of placebo or teduglutide, diagnostic biomarker levels were tested to establish a baseline for each individual.
To determine the effect of GLP-2 on the levels of the diagnostic biomarkers, the average level of each biomarker was measured for the placebo and teduglutide treated groups for each visit. Furthermore, the average change from baseline was calculated using the established baseline values. For FIGS. 17-28, p-values were calculated using the t-test.
P values are provided, which were calculated for each distribution of biomarker changes for each week using the chi-squared test.

CC[C@H](C)[C@H](NC(=O)[C@H](Cc1ccccc1)NC(=O)[C@H](CC(=O)O)NC(=O)[C@H](CCCNC(=N)N)NC(=O)[C@H](C)NC(=O)[C@H](C)NC(=O)[C@H](CC(C)C)NC(=O)[C@H](CC(N)=O)NC(=O)[C@H](CC(=O)O)NC(=O)[C@H](CC(C)C)NC(=O)[C@@H](NC(=O)[C@@H](NC(=O)[C@H](CC(N)=O)NC(=O)[C@H](CCSC)NC(=O)[C@H](CCC(=O)O)NC(=O)[C@H](CC(=O)O)NC(=O)[C@H](CO)NC(=O)[C@H](Cc1ccccc1)NC(=O)[C@H](CO)NC(=O)CNC(=O)[C@H](CC(=O)O)NC(=O)CNC(=O)[C@@H](N)Cc1c[nH]cn1)[C@@H](C)O)[C@@H](C)CC)C(=O)N[C@@H](CC(N)=O)C(=O)N[C@@H](Cc1c[nH]c2ccccc12)C(=O)N[C@@H](CC(C)C)C(=O)N[C@H](C(=O)N[C@@H](CCC(N)=O)C(=O)N[C@H](C(=O)N[C@@H](CCCCN)C(=O)N[C@H](C(=O)N[C@H](C(=O)N[C@@H](CC(=O)O)C(=O)O)[C@@H](C)O)[C@@H](C)CC)[C@@H](C)O)[C@@H](C)CC [teduglutide]
Bilirubin: subjects Within 10% of Baseline (Week 8, m = 40): 10 (25.0%) n (%)
Bilirubin: subjects with >10% decrease from Baseline (Week 8, m = 40): 20 (50.0%) n (%)
Bilirubin: subjects with >10% increase from Baseline (Week 8, m = 40): 10 (25.0%) n (%)
ALKALINE PHOSPHATASE Change from Baseline Median (Week 12): −23 U/L
ALT Change from Baseline, Max (Week 12): 35 U/L
ALT Change from Baseline, Mean (Week 12): −9.8 U/L
ALT Change from Baseline, Median (Week 12): −4 U/L
ALT Change from Baseline, Min (Week 12): −62 U/L
ALT Observed Value, Max (Week 12): 94 U/L
ALT Observed Value, Min (Week 12): 11 U/L
AST Change from Baseline, Max (Week 12): 34 U/L
AST Change from Baseline, Mean (Week 12): −4.2 U/L
AST Change from Baseline, Median (Week 12): −5 U/L
AST Change from Baseline, Min (Week 12): −39 U/L
AST Observed Value, Max (Week 12): 60 U/L
AST Observed Value, Median (Week 12): 25 U/L
AST Observed Value, Min (Week 12): 9 U/L
Albumin Change from Baseline, Max (Week 12): 5 g/L
Albumin Change from Baseline, Mean (Week 12): -0.9 g/L
Albumin Change from Baseline, Median (Week 12): -1 g/L
Albumin Change from Baseline, Min (Week 12): -7 g/L
Albumin Observed Value, Max (Week 12): 47 g/L
Albumin Observed Value, Median (Week 12): 41 g/L
Albumin Observed Value, Min (Week 12): 35 g/L
Alkaline Phosphatase Change from Baseline, Max (Week 12): 25 U/L
Alkaline Phosphatase Change from Baseline, Min (Week 12): −127 U/L
Alkaline Phosphatase Observed Value, Max (Week 12): 304 U/L
Alkaline Phosphatase Observed Value, Median (Week 12): 98 U/L
Alkaline Phosphatase Observed Value, Min (Week 12): 52 U/L
Bilirubin Change from Baseline, Max (Week 12): 5.2 µmol/L
Bilirubin Change from Baseline, Median (Week 12): -0.05 µmol/L
Bilirubin Change from Baseline, Min (Week 12): -13.2 µmol/L
Bilirubin Observed Value, Max (Week 12): 57.8 µmol/L
Bilirubin Observed Value, Min (Week 12): 3.2 µmol/L
Gamma Glutamyl Transferase Change from Baseline, Max (Week 12): 56 U/L
Gamma Glutamyl Transferase Change from Baseline, Mean (Week 12): −8.1 U/L
Gamma Glutamyl Transferase Change from Baseline, Median (Week 12): −4 U/L
Gamma Glutamyl Transferase Change from Baseline, Min (Week 12): −162 U/L
Gamma Glutamyl Transferase Observed Value, Max (Week 12): 240 U/L
Gamma Glutamyl Transferase Observed Value, Median (Week 12): 51 U/L
Gamma Glutamyl Transferase Observed Value, Min (Week 12): 8 U/L
ALT: subjects Within 10% of Baseline (Week 12, m = 34): 10 (29.4%) n (%)
ALT: subjects with >10% decrease from Baseline (Week 12, m = 34): 17 (50.0%) n (%)
ALT: subjects with >10% increase from Baseline (Week 12, m = 34): 7 (20.6%) n (%)
AST: subjects Within 10% of Baseline (Week 12, m = 34): 6 (17.6%) n (%)
AST: subjects with >10% decrease from Baseline (Week 12, m = 34): 21 (61.8%) n (%)
AST: subjects with >10% increase from Baseline (Week 12, m = 34): 7 (20.6%) n (%)
Albumin: subjects Within 10% of Baseline (Week 12, m = 34): 31 (91.2%) n (%)
Albumin: subjects with >10% decrease from Baseline (Week 12, m = 34): 2 (5.9%) n (%)
Albumin: subjects with >10% increase from Baseline (Week 12, m = 34): 1 (2.9%) n (%)
Alkaline Phosphatase: subjects Within 10% of Baseline (Week 12, m = 34): 6 (17.6%) n (%)
Alkaline Phosphatase: subjects with >10% decrease from Baseline (Week 12, m = 34): 23 (67.6%) n (%)
Alkaline Phosphatase: subjects with >10% increase from Baseline (Week 12, m = 34): 5 (14.7%) n (%)
Bilirubin: subjects Within 10% of Baseline (Week 12, m = 34): 10 (29.4%) n (%)
Bilirubin: subjects with >10% decrease from Baseline (Week 12, m = 34): 15 (44.1%) n (%)
Bilirubin: subjects with >10% increase from Baseline (Week 12, m = 34): 9 (26.5%) n (%)
ALT Change from Baseline, Max (Week 16): 45 U/L
ALT Change from Baseline, Mean (Week 16): −8.0 U/L
ALT Change from Baseline, Median (Week 16): −3 U/L
ALT Change from Baseline, Min (Week 16): −64 U/L
ALT Observed Value, Max (Week 16): 140 U/L
ALT Observed Value, Min (Week 16): 13 U/L
AST Change from Baseline, Max (Week 16): 20 U/L
AST Change from Baseline, Mean (Week 16): −3.3 U/L
AST Change from Baseline, Median (Week 16): −3 U/L
AST Change from Baseline, Min (Week 16): −42 U/L
AST Observed Value, Max (Week 16): 65 U/L
AST Observed Value, Median (Week 16): 26 U/L
AST Observed Value, Min (Week 16): 9 U/L
Albumin Change from Baseline, Max (Week 16): 3 g/L
Albumin Change from Baseline, Mean (Week 16): -0.7 g/L
Albumin Change from Baseline, Median (Week 16): -0.5 g/L
Albumin Change from Baseline, Min (Week 16): -5 g/L
Albumin Observed Value, Max (Week 16): 49 g/L
Albumin Observed Value, Median (Week 16): 42 g/L
Albumin Observed Value, Min (Week 16): 32 g/L
Alkaline Phosphatase Change from Baseline, Max (Week 16): 71 U/L
Alkaline Phosphatase Change from Baseline, Min (Week 16): −104 U/L
Alkaline Phosphatase Observed Value, Max (Week 16): 311 U/L
Alkaline Phosphatase Observed Value, Min (Week 16): 46 U/L
Bilirubin Change from Baseline, Max (Week 16): 5.2 µmol/L
Bilirubin Change from Baseline, Min (Week 16): -37.7 µmol/L
Bilirubin Observed Value, Max (Week 16): 27.4 µmol/L
Bilirubin Observed Value, Mean (Week 16): 9.40 µmol/L
Bilirubin Observed Value, Median (Week 16): 8.1 µmol/L
Bilirubin Observed Value, Min (Week 16): 3.4 µmol/L
Gamma Glutamyl Transferase Change from Baseline, Max (Week 16): 90 U/L
Gamma Glutamyl Transferase Change from Baseline, Mean (Week 16): −7.0 U/L
Gamma Glutamyl Transferase Change from Baseline, Median (Week 16): −5.5 U/L
Gamma Glutamyl Transferase Change from Baseline, Min (Week 16): −161 U/L
Gamma Glutamyl Transferase Observed Value, Max (Week 16): 294 U/L
Gamma Glutamyl Transferase Observed Value, Median (Week 16): 54 U/L
Gamma Glutamyl Transferase Observed Value, Min (Week 16): 6 U/L
ALT: subjects Within 10% of Baseline (Week 16, m = 38): 10 (26.3%) n (%)
ALT: subjects with >10% decrease from Baseline (Week 16, m = 38): 20 (52.6%) n (%)
ALT: subjects with >10% increase from Baseline (Week 16, m = 38): 8 (21.1%) n (%)
AST: subjects Within 10% of Baseline (Week 16, m = 38): 12 (31.6%) n (%)
AST: subjects with >10% decrease from Baseline (Week 16, m = 38): 19 (50.0%) n (%)
AST: subjects with >10% increase from Baseline (Week 16, m = 38): 7 (18.4%) n (%)
Albumin: subjects Within 10% of Baseline (Week 16, m = 38): 36 (94.7%) n (%)
Albumin: subjects with >10% decrease from Baseline (Week 16, m = 38): 2 (5.3%) n (%)
Albumin: subjects with >10% increase from Baseline (Week 16, m = 38): 0 n (%)
